According to patent US20250011316A1, “PEROXIREDOXIN 3 INHIBITORS AND METHODS OF USE FOR TREATING CANCER” (Wake Forest University Health Sciences, priority 2022, published 2025):
≈ marks a conversion by molar mass, not a printed value.

Legend:
[1] = system: Enterococcus hirae (ATCC #10541); test: Antimicrobial Activity Assay (MIC / growth inhibition); type: cell-based; details: ATCC10541; Enterococcus hirae; analogs tested at 20 μM final concentration
Experimental: The overnight growth was then diluted into growth media to make a single solution of E. hirae with a final optical density at 600 nm=0.02 AU. A 20 mM stock solution of Thiostrepton in DMSO was made and used to make multiple dilutions of TS in DMSO. Each TS dilution (0.1 mL) was then added to a test tube containing 10 mL of the diluted E. hirae and grown at 37° C. overnight while shaking at 180 rpm. The next morning, each tube was visually inspected to determine if the cells grew. Final concentrations tested were 0.120, 0.090, 0.075, 0.060, 0.045, 0.030, and 0.015 μM TS. […] Three replicates were made on three separate days (n=9). […] For TS analogs, the dilute E. hirae was treated with 20 μM final concentration of each analog (three replicates each). […] DMSO was used as a positive control (complete cell growth) and 20 μM thiostrepton was used as a negative control.

Solubility Assay (HPLC) = type: physicochemical; details: HEPES/NaCl buffer, aqueous with cosolvent or surfactant or cyclodextrin, kinetic from dmso stock; 20 mM HEPES, 100 mM NaCl, pH 7.5, 18-24 hours at ambient temperature; read-out: Solubility
Experimental: A 20 mM stock solution was made for each compound in DMSO. To measure solubility, 0.03-0.05 mL of the stock was added to 0.27 mL 20 mM HEPES, 100 mM NaCl, pH 7.5. The solution was mixed and rotated 18-24 hours at ambient temperature. The next day, solutions were centrifuged for 10 min at 20,000×g at […] to remove insoluble, solid material. Next, 100 μL of the supernatant containing the soluble compound was added to 900 μL DMSO and High Performance Liquid Chromatography was performed as described in Table 1 and either HIPLC gradient 1 (Table 2) or HIPLC gradient 2 (Table 3). For each analog, a 200 μM standard and a 20 μM standard were prepared and run in parallel (standards were dissolved completely in […]). The amount ofLcompound in the experimental sample was calculated by comparing the area under the curve for compound peak to the area for the closest standard and correcting for dilution.

purified human PRX3 = target: T1, purified human PRX3 (Homo sapiens, UniProt P30048); test: Biochemical PRX3 Inhibition Assay (non-reducible crosslink by SDS PAGE + single adduct by MALDI-TOF MS); details: 100 μM PRX3 with TRX2/thioredoxin reductase/NADPH system and hydrogen peroxide, 1-2 hr at 37° C.
T1 construct: made in house
T1 sequence (P30048 62-256): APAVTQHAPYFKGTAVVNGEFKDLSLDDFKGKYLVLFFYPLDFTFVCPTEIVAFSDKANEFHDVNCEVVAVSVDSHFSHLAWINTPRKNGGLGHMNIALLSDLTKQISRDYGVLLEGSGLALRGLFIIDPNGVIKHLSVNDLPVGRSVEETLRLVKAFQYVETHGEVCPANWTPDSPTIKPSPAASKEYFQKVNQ
Excerpt: The compounds described herein generally react with two essential cysteine residues in the mitochondrial peroxidase PRX3, leading to the formation of a non-reducible, covalent crosslink of two PRX3 monomers. This crosslink inactivates PRX3. Increased PRX3 crosslink is associated with mitochondrial stress, increased cell death in cell models of malignant mesothelioma and is associated with decreased tumor volume in a mouse model. Cunniff et al. (2015) PloS one 10, e0127310.
(§1) To test the activity of compounds, two complimentary assays were used as described below. The Biochemical PRX3 Inhibition Assay tests the ability of each compound to crosslink PRX3 in a simple, in vitro system. In the Cellular Activity Assay, we are testing the ability of compounds to kill SK—OV-3 ovarian cancer cells.
This assay tests the ability of each compound to form a covalent adduct with PRX3. The assay is performed as described in Nelson et al. (2021) Antioxidants (Basel) 10, 150; and Cunniff et al. (2015) PloS one 10, e0127310, and follows the appearance of non-reducible PRX3 crosslinks by SDS PAGE gel electrophoresis and follows the appearance of single PRX3 adducts by mass spectrometry. For this assay, purified human PRX3, hydrogen peroxide (the PRX3 substrate) and all the components required to enable PRX3 to catalytically cycle (thioredoxin-thioredoxin reductase-NAPDH system) are included (details below).
The biochemical PRX3 Inhibition assay contains 100 μM PRX3, 50 μM human TRX2, 0.5 μM mouse thioredoxin reductase, and a NADPH regenerating system composed of 3.2 mM glucose 6-phosphate, 3.2 U/ml glucose 6-phosphate dehydrogenase and 0.4 mM NADPH. Samples are incubated for 1-2 hr at 37° C. with either 0.2 mM TS (positive control), compounds or an equivalent volume of DMSO (negative control). During this incubation, hydrogen peroxide is added to induce turnover of PRX3. Reactions are stopped by the addition of a buffer containing 100 mM dithiothreitol (to break disulfide bonds) and SDS (detergent to denature proteins). NADPH, Glucose 6-Phosphate, and glucose 6-phosphate dehydrogenase were purchased from Sigma Aldrich. PRX3, thioredoxin, and thioredoxin reductase were all purified to >98% purity in the Lowther laboratory according to protocols referenced in Nelson et al. (2021) Antioxidants (Basel) 10, 150; and Cunniff et al. (2015) PloS one 10, e0127310.
To measure the amount of PRX3 crosslink, proteins in the reaction were separated by SDS-polyacrylamide gel electrophoresis and stained for total protein using GelCode Blue (Life Technologies). The amount of unmodified PRX3 and TS-PRX3 crosslink was measured by densiometric analysis of the signal for the PRX3 band running at the MW of a PRX3 crosslink (˜46 kDa) compared to the PRX3 signal at the MW of the un-modified PRX3 (−23 kD).
To measure covalent adduct formation on a single PRX3 monomer, each reaction was exchanged into a mass spectrometry compatible buffer containing 40 mM ammonium citrate, pH 8.3 made in HPLC water. Sample was mixed 1:1 with a matrix solution containing 30 mg/mL sinapinic acid in 70% (vol/vol) acetonitrile, 0.2% formic acid and spotted to onto the sample plate. PRX3 mass was measured by MALDI-TOF MS analysis on a Bruker Daltonics MALDI-TOF MS spectrometer. Spectra were analyzed in FLEXAnalysis Software. The intensity of the reduced PRX3 peak (SH) and intensity of the analog adduct peak was determined and corrected for background signal at the adduct peak in the DMSO control. The fraction of single analog adduct in the monomer peak was determined by dividing the intensity of the adduct peak by the summed intensity of the SH and adduct peaks.

[2] = system: human SK—OV-3 ovarian cancer cells; test: Cellular Activity Assay (cytotoxicity, crystal violet); type: cell-based; details: Homo sapiens, SK—OV-3 cells, treated for 48 hr, 0.1-100 μM, crystal violet absorbance at 540 nm
Excerpt: as §1
The Cellular Activity Assay measures the EC50 of each compound in human SK—OV-3 ovarian cancer cells TS to be taken into the cell, transported to the mitochondria, and crosslink PRX3.
The cytotoxicity of compounds was measured as described in Nelson et al. (2021) Antioxidants (Basel) 10, 150; Cunniff et al. (2015) PloS one 10, e0127310; and Newick et al. (2012) PloS one 7, e39404. SK—OV-3 is an adherent, epithelial, adenocarcinoma cell line obtained from ATCC (ref #: HTB-77). SK—OV-3 cells are resistant to the commonly used chemotherapeutics, cis-platinum and doxorubicin. For this […], SK—OV-3 cells were plated in a 96-well plate. After 24 h recovery, the cells were treated for 48 hr with multiple concentrations of each compound ranging from 0.1-100 μM.
Cells were washed with PBS to remove dead cells and the remaining live cells were fixed with 3.0% formaldehyde and stained with 0.1% crystal violet. The amount of crystal violet was determined by reading the absorbance at 540 nm (crystal violet dye dissolved in 100% methanol) using a plate reader. The signal for crystal violet dye is proportional to the biomass of remaining live cells. GraphPad Prism9 software was used to calculate the effective inhibitory concentration (EC50) of test compounds. Results for each compound, are normalized to the amount of cells in control wells treated with the equivalent concentration of DMSO (negative control). TS or Compound 4 were included in each set of assays as a positive control.

Row | MIC [1] [µM] | solubility (Solubility Assay (HPLC)) [µM] | PRX3 Inhibition (Crosslink + Mono-adduct) (purified human PRX3) | SMILES | EC50 [2] [µM] | EC50 ([2]; SK-OV-3, 48 h) [µM]
1 | > 20 | 100 to 1000 (≈ 46.5 to 465 µg/mL) | ++ (50-90%) | C=C(NC(=O)c1csc(C2CCN(C(=O)OC(C)(C)C)CC2)n1)C(=O)NC(=C)C(=O)OC [Compound 1, Tert-butyl 4-(4-((3-((3-methoxy-3-oxoprop-1-en-2-yl)amino)-3-oxoprop-1-en-2-yl)carbamoyl)thiazol-2-yl)piperidine-1-carboxylate] | 1 to 10 | 
2 | > 20 | < 100 | +++ (>90%) | C=C(NC(=O)c1csc(C2=CCN(C(=O)OC(C)(C)C)CC2)n1)C(=O)NC(=C)C(=O)OC [Compound 9, Tert-butyl 4-(4-((3-((3-methoxy-3-oxoprop-1-en-2-yl)amino)-3-oxoprop-1-en-2-yl)carbamoyl)thiazol-2-yl)-3,6-dihydropyridine-1(2H)-carboxylate] | 1 to 10 | 
3 | > 20 | < 100 | ++ (50-90%) | C=C(NC(=O)c1csc(-c2ccc(OC)cc2)n1)C(=O)NC(=C)C(=O)OC [Compound 7, Methyl 2-(2-(2-(4-methoxyphenyl)thiazole-4-carboxamido)acrylamido)acrylate] | 1 to 10 | 
4 | > 20 | < 100 | +++ (>90%) | C=C(NC(=O)c1csc(-c2cccc(COCCOC)c2)n1)C(=O)NC(=C)C(=O)OC [Compound 27, Methyl 2-(2-(2-(3-((2-methoxyethoxy)methyl)phenyl)thiazole-4-carboxamido)acrylamido)acrylate] | 1 to 10 | 
5 | > 20 | 100 to 1000 (≈ 46.5 to 465 µg/mL) | ++ (50-90%) | C=C(NC(=O)c1csc(C2CCCN(C(=O)OC(C)(C)C)C2)n1)C(=O)NC(=C)C(=O)OC (centres unmarked) [Compound 3, Tert-butyl 3-(4-((3-((3-methoxy-3-oxoprop-1-en-2-yl)amino)-3-oxoprop-1-en-2-yl)carbamoyl)thiazol-2-yl)piperidine-1-carboxylate] | 10 to 25 | 
6 | > 20 | < 100 | +++ (>90%) | C=C(NC(=O)c1csc(N2CCCC(C(=O)NCC(C)C)C2)n1)C(=O)NC(=C)C(=O)OC (centres unmarked) [Compound 28, Methyl 2-(2-(2-(3-(isobutylcarbamoyl)piperidin-1-yl)thiazole-4-carboxamido)acrylamido)acrylate] | 1 to 10 | 
7 | > 20 | 100 to 1000 (≈ 48.9 to 489 µg/mL) | ++ (50-90%) | C=C(NC(=O)c1csc(-c2ccc(CNC(=O)OCCOC)cc2)n1)C(=O)NC(=C)C(=O)OC [Compound 26, Methyl 2-(2-(2-(4-((((2-methoxyethoxy)carbonyl)amino)methyl)phenyl)thiazole-4-carboxamido)acrylamido)acrylate] | 1 to 10 | 

Further lines, the molecule ahead of its results:

Row | SMILES | MIC [1] [µM] | solubility (Solubility Assay (HPLC)) [µM] | PRX3 Inhibition (Crosslink + Mono-adduct) (purified human PRX3) | EC50 [2] [µM] | EC50 ([2]; SK-OV-3, 48 h) [µM]
8 | C=C(NC(=O)c1csc(-c2ccc(C(=O)NCCCCCCOS(C)(=O)=O)nc2)n1)C(=O)NC(=C)C(=O)OC [Compound 6, Methyl 2-(2-(2-(6-((6-((methylsulfonyl)oxy)hexyl)carbamoyl)pyridine-3-yl)thiazole-4-carboxamido)acrylamido)acrylate] | > 20 | < 100 | +++ (>90%) | 1 to 10 | 
9 | C=C(NC(=O)c1csc(-c2ccc(CNC(=O)OC(C)(C)C)cc2)n1)C(=O)NC(=C)C(=O)OC [Compound 8, Methyl 2-(2-(2-(4-(((tert-butoxycarbonyl)amino)methyl)phenyl)thiazole-4-carboxamido)acrylamido)acrylate] | > 20 | < 100 | +++ (>90%) | 1 to 10 | 
10 | C=C(NC(=O)c1csc(N2CCC(C(=O)NCCNC(=O)OC(C)(C)C)CC2)n1)C(=O)NC(=C)C(=O)OC [Compound 15, Methyl 2-(2-(2-(4-((2-((tert-butoxycarbonyl)amino)ethyl)carbamoyl)piperidin-1-yl)thiazole-4-carboxamido)acrylamido)acrylate] | > 20 | < 100 | +++ (>90%) | 1 to 10 | 
11 | C=C(NC(=O)c1csc(N2CCC(NC(=O)CCCCCNC(=O)OC(C)(C)C)CC2)n1)C(=O)NC(=C)C(=O)OC [Compound 13, Methyl 2-(2-(2-(4-(6-((tert-butoxycarbonyl)amino)hexanamido)piperidin-1-yl)thiazole-4-carboxamido)acrylamido)acrylate] | > 20 | 100 to 1000 (≈ 59.3 to 593 µg/mL) | +++ (>90%) |  | 1 to 10
